{"source": "patent US20110201659A1", "about": "“AGENT FOR PREVENTING OR TREATING ZOSTER-ASSOCIATED PAIN” (ASTELLAS PHARMA INC., priority 2008, published 2011)", "key": {"[1]": {"system": "patients who underwent herpes zoster", "assay": "clinical evaluation of zoster-associated pain / PHN incidence (Numeric pain scale)", "type": "in vivo, human", "conditions": "for PHN incidence rate: pain scale of 3 or more on 91 days after first day of administration", "from_the_text": "The effect of compound A to prevent and treat zoster-associate pain in patients who underwent herpes zoster was clinically evaluated by monitoring the presence or absence of pain after administration of the compound A in the following manner. For the purpose, Numeric pain scale (11 points of from 0 (no pain) to 10 (a pain of more than this cannot be considered)) was used in the pain evaluation (Oxman M N, et al. N Engl J Med 2005; 352: 2271-2284).\nUnder informed consent with the persons themselves, 100 mg, 200 mg or 400 mg of the compound A was taken once a day for 7 days by each of the patients who underwent herpes zoster, and the pain was recorded by them day by day by the Numeric pain scale using a diary. From the diary record, the number of patients having pain scales of 3 or more on 91 days after the first day of drug administration were counted as the cases of PHN onset, and using the ratio based on the all persons to be rested as the PHN incidence rate, the effect of the compound A to prevent PHN was evaluated. As a result, the PHN incidence rate in the group which took 100 mg, 200 mg or 400 mg of the compound A was 2.0% (2 cases in 99 persons), 1.0% (1 case in 97 persons) or 3.2% (3 cases in 95 persons), respectively. Compound A inhibited the onset of PHN in 95% or more of the herpes zoster patients in the clinical evaluation."}, "[2]": {"system": "herpes simplex virus (HSV) and VZV", "conditions": "disclosed in Patent References 5 to 7; cited from earlier work"}, "HSV-1 [3]": {"system": "HSV-1", "assay": "HSV-1 skin infection of hairless mice: skin lesion score and histopathology of skin, spinal cord and dorsal root ganglion", "type": "in vivo, mouse", "description": "Using mice, examination was carried out on the tissue damage and nerve degeneration of the skin, spinal cord and spinal cord dorsal root ganglion by HSV-1 infection. Under ether anesthesia, right side of the dorsal part of a hairless mouse (HOS: HR-1, female, 7 weeks of age at the time of infection) was scratched with a needle, and 15 μl/mouse of an HSV-1 virus liquid was added dropwise to the scratched part to be infected. While, 15 μl/mouse of a solvent instead of the HSV-1 virus liquid was added dropwise in the pseudo-infection group. The compound to be tested (N-(2,6-dimethylphenyl)-N-(2-{[4-(1,2,4-oxadiazol-3-yl)phenyl]amino}-2-oxoethyl)tetrahydro-2H-thiopyran-4-carboxamide 1,1-dioxide: hereinafter, “compound A”) was used by dissolving in a 25% Cremophor (registered trademark) EL/25% polyethylene glycol 400 aqueous solution. By setting the administration liquid volume per one administration to 10 ml/kg, each initial administration was started one day after the HSV-1 infection. Thereafter, 50 mg/kg was repeatedly administered orally twice a day for 5 days.\nThe skin and spinal column (including spinal cord and dorsal root ganglion) were collected at 11 or 28 days after the infection and fixed with a 10% neutral buffer formalin liquid to prepare paraffin sections. Also, specimens of spinal cord and dorsal root ganglion were prepared on the transverse plane at the level of fourth thoracic vertebra (T4) and sixth thoracic vertebra (T6). Regarding the staining, immunohistological staining for PGP 9.5 as neurite-specific antigen was carried out on the skin sections, in addition to the hematoxylin-eosin staining (HE staining).\nThe skin lesions which bear resemblance to herpes zoster and are developed accompanied by HSV skin infection were classified based on the skin lesion critical degrees and systemic symptoms and scored as from 0 to 7, every day from 1 day to 28 days after the infection.\nScore 1: erythema, blister or scab at local region\nScore 2: erythema, blister or scab at small region\nScore 3: erythema, blister or scab at middle region\nScore 4: strap-like blister or scab\nScore 5: erosion accompanied by ulcer at middle region\nScore 6: strap-like ulcer\nScore 7: death or paralysis"}, "HSV-1 [4]": {"system": "HSV-1", "assay": "mouse HSV infection pain model (von Frey hair pain score, histopathology)", "type": "in vivo", "from_the_text": "Examination was made on the effect of compound A upon the pain accompanied by viral infection. The mouse HSV infection pain model system on which onset of the pain similar to ZAP including acute phase and chronic phase pains has been reported was used in the evaluation of pain (Takasaki I, et al. Pain 2000; 86: 95-101, Takasaki I, et al. Jpn J. Pharmacol 2000; 83: 319-326, Takasaki I, et al. Anesthesiology 2002; 96: 1168-1174, Sasaki A, et al. Neuroscience 2007; 150: 459-466). Briefly, an area of 5×5 mm of epidermis of the lower part of the right hind leg knee joint of a hairless mouse (HOS: HR-1, female, 7 weeks of age at the time of infection) was scratched with a bundle of ten 27G intracutaneous injection needles, and 1.5×10^5 pfu/10 μL of an HSV-1 virus liquid was added dropwise thereto and spread thereon to be infected. Starting from one day after the infection, the compound A (50 mg/kg) or a solvent (25% Cremophor (registered trademark) EL/25% polyethylene glycol 400 aqueous solution) was orally administered twice a day for 5 days (5 animals each). The skin lesions were classified based on the skin lesion critical degrees and systemic symptoms and scored as from 0 to 7 (cf. the above-mentioned Example 1). […] The pain reaction of this case was evaluated as follows. […]\nThe pain score of each individual was calculated by averaging six scores. […]"}, "VZV": {"system": "VZV", "conditions": "reported in Patent References 5 to 8; cited from earlier work"}}, "data": [{"smiles": "Cc1cccc(C)c1N(CC(=O)Nc1ccc(-c2ncon2)cc1)C(=O)C1CCS(=O)(=O)CC1", "note": "[compound A, N-(2,6-dimethylphenyl)-N-(2-{[4-(1,2,4-oxadiazol-3-yl)phenyl]amino}-2-oxoethyl)tetrahydro-2H-thiopyran-4-carboxamide 1,1-dioxide]", "values": [{"measurement": "PHN incidence rate", "setting": "[1]; 100 mg once a day for 7 days, 99 persons", "result": 2.0, "unit": "%"}, {"measurement": "PHN incidence rate", "setting": "[1]; 200 mg once a day for 7 days, 97 persons", "result": 1.0, "unit": "%"}, {"measurement": "PHN incidence rate", "setting": "[1]; 400 mg once a day for 7 days, 95 persons", "result": 3.2, "unit": "%"}, {"measurement": "herpes zoster patients in whom onset of PHN was inhibited", "setting": "[1]; 100, 200 or 400 mg once a day for 7 days, all dose groups", "result": "≥ 95", "unit": "%"}, {"measurement": "in vivo activity", "setting": "[2]", "result": "good in vivo activity"}, {"measurement": "skin lesion score (onset of herpes zoster-like skin lesions)", "setting": "HSV-1 [3]; hairless mouse, HSV-1 dorsal skin infection, 50 mg/kg orally twice a day for 5 days from 1 day after infection, scored day 1-28, FIG. 1", "result": "inhibited the onset of skin lesions"}, {"measurement": "right dorsal root ganglion histopathology (degeneration of nerve cell, infiltration of mononuclear cell)", "setting": "HSV-1 [3]; right dorsal root ganglion at 11 days after infection, HE staining, FIG. 3d", "result": "inhibited degeneration of nerve cell and infiltration of mononuclear cell"}, {"measurement": "skin histopathology, HE staining (fall off of epidermis, infiltration of mononuclear cells, regeneration of epidermis)", "setting": "HSV-1 [3]; skin at 11 days after infection, 50 mg/kg orally twice a day for 5 days, FIG. 2b", "result": "inhibited fall off of epidermis and infiltration of mononuclear cell and accelerated regeneration of epidermis"}, {"measurement": "PGP 9.5 immunostaining of the skin (nerve ending in epidermis)", "setting": "HSV-1 [3]; skin at 28 days after infection, versus solvent control group, FIG. 2d", "result": "inhibition of the reduction of nerve ending"}, {"measurement": "spinal cord histopathology (nerve fiber vacuolization)", "setting": "HSV-1 [3]; spinal cord at 11 days after infection, HE staining, FIG. 3b", "result": "protected nerve fiber in the spinal cord"}, {"measurement": "nerve cell degeneration in right dorsal root ganglion, spinal cord right dorsal horn and right hind leg sciatic nerve bundle", "setting": "HSV-1 [4]; 28 days after infection, HE staining, FIG. 5", "result": "nerve cell degeneration was inhibited"}, {"measurement": "pain score (von Frey hair 0.4 g, infected hind leg)", "setting": "HSV-1 [4]; hairless mouse, HSV-1 hind leg infection, 50 mg/kg orally twice a day for 5 days from 1 day after infection, early stage of onset and complete recovery stage of the lesion, FIG. 4B", "result": "increase of pain score was considerably inhibited"}, {"measurement": "anti-viral activity on VZV", "setting": "VZV", "result": "has the anti-viral activity on VZV"}]}, {"smiles": "Cc1ccc(N(CC(=O)Nc2ccc(-c3cocn3)cc2)C(=O)C2CCS(=O)(=O)CC2)cc1", "note": "[N-(4-methylphenyl)-N-(2-{[4-(1,3-oxazol-4-yl)phenyl]amino}-2-oxoethyl)tetrahydro-2H-thiopyran-4-carboxamide 1,1-dioxide]", "values": [{"measurement": "in vivo activity", "setting": "[2]", "result": "good in vivo activity"}]}]}
